Source: US12023345B2, “Compositions and methods for treating lysosomal disorders” (RUSH UNIVERSITY MEDICAL CENTER, priority 2014, dated 2024)

What was measured:
[1] = tested on: TFEB; conditions: cells from patients suffering from LINCL; cited from earlier work
[2] = tested on: Tfeb; experiment: Tfeb mRNA by quantitative real-time PCR in mouse primary astrocytes; format: cell-based; conditions: serum free media, 12 hrs, single doses or combination
Method: Isolation of Primary Mouse Astroglia: Astroglia were isolated from mixed glial cultures as described (24, 25) according to the procedure of Giulian and Baker (26). Briefly, on day 9, the mixed glial cultures were washed three times with Dulbecco's modified Eagle's medium/F-12 and subjected to shaking at 240 rpm for 2 h at 37° C. on a rotary shaker to remove microglia. After 2 days, the shaking was repeated for 24 h for the removal of oligodendroglia and to ensure the complete removal of all nonastroglial cells. The attached cells were seeded onto new plates for further studies. Quantitative Real-Time PCR: The mRNA quantification was performed using the ABIPrism7700 sequence detection system (Applied Biosystems, Foster City, CA) using SYBR Select master mix (Applied Biosystems). The mRNA expression of the targeted genes was normalized to the level of Gapdh mRNA and data was processed by the ABI Sequence Detection System 1.6 software.

[3] = tested on: TFEB; conditions: cited from earlier work
[4] = 500 mg SAM given together with aspirin 1300 mg; cited from earlier work
[5] = tested on: Tfeb; experiment: TFEB mRNA by semi-quantitative RT-PCR in mouse primary astrocytes; format: cell-based; conditions: different concentrations, 5 hr, serum-free
Method: Semi-Quantitative Reverse Transcriptase-Coupled Polymerase Chain Reaction (RT-PCR): Total RNA was isolated from mouse primary astrocytes and human primary astrocytes using RNA-Easy Qiagen (Valencia, CA) kit following manufactures protocol. Semi-quantitative RTPCR was carried out as described earlier (28) using oligo (dT) 12-18 as primer and moloney murine leukemia virus reverse transcriptase (MMLV-RT, Invitrogen) in a 20 μl reaction mixture. The resulting cDNA was appropriately amplified using Promega Master Mix (Madison, WI) and the following primers (Invitrogen) for murine genes: […]
Amplified products were electrophoresed on 2% agarose (Invitrogen) gels and visualized by ethidium bromide (Invitrogen) staining. Glyceraldehyde-3-phosphate dehydrogenase (Gapdh) mRNA was used as a loading control to ascertain that an equivalent amount of cDNA was synthesized from each sample.
Mouse primary astrocytes were incubated with different concentrations (see FIG. 9) of simvastatin and pravastatin (A), (B), cinnamic acid (C), and sodium phenylbutyrate and sodium benzoate (D) for 5 hr. under serum-free condition followed by monitoring the mRNA expression of TFEB by semi-quantitative RT-PCR. Sodium formate (D) was used as a negative control for sodium phenylbutyrate and sodium benzoate.

For 2-hydroxypropyl-β-cyclodextrin, the “TFEB-mediated clearance of proteolipid aggregates” value [1] is given as “promotes TFEB-mediated clearance of proteolipid aggregates”.

In the case of `CC1=C(/C=C/C(C)=C/C=C/C(C)=C/C(=O)O)C(C)(C)CCC1` [ATRA, all-trans retinoic acid], the “Tfeb mRNA expression (qRT-PCR)” value [2] is reported as “increased expression of Tfeb”.

For `O=c1c(-c2ccc(O)cc2)coc2cc(O)cc(O)c12` [Genistein, 5,7-dihydroxy-3-(4-hydroxyphenyl)-4H-1-benzopyran-4-one], the “TFEB levels and activity, lysosomal biogenesis” value [3] is given as “induction of TFEB levels and activity as well as lysosomal biogenesis”.

In the case of `C[S+](CC[C@H](N)C(=O)[O-])C[C@H]1O[C@@H](n2cnc3c(N)ncnc32)[C@H](O)[C@@H]1O` (stereo partly shown) [S-adenosyl-methionine], the “reduction of the amount of stomach damage” value [4] is listed as 90%.

In the case of `O=C(O)C=Cc1ccccc1` [cinnamic acid], the “TFEB mRNA expression (semi-quantitative RT-PCR)” value [5] is reported as “upregulation of TFEB mRNA expression”.

For `Cc1ccc(C)c(OCCCC(C)(C)C(=O)O)c1` [gemfibrozil], the “Tfeb mRNA expression (qRT-PCR)” value [2] was “increased expression of Tfeb”.

In the case of `O=C([O-])c1ccccc1.[Na+]` [sodium benzoate], the “TFEB mRNA expression (semi-quantitative RT-PCR)” value [5] is reported as “upregulation of TFEB mRNA expression”.
